In ChEMBL document CHEMBL5143579, “Aulosirazoles B and C from the Cyanobacterium Nostoc sp. UIC 10771: Analogues of an Isothiazolonaphthoquinone Scaffold that Activate Nuclear Transcription Factor FOXO3a in Ovarian Cancer Cells” (J Nat Prod, 2022):
pIC50: −log10 of the molar value. Values belong to the compound of their own block, whether it stands above or below them. Activity calls are given as the source filed them. No cut-off for these calls is given here.

Key:
[1] = target: Forkhead box protein O3 (Homo sapiens) (UniProt O43524); test: Activation of FOXO3a in human OVACAR-3 cells assessed as cytosolic localization of FOXO3a at 2 uM incubated for 3 hrs by DAPI staining based immunofluorescence assay; type: cell-based; settings: OVCAR-3, filed as activator
Forkhead box protein O3 (Homo sapiens), sequence (O43524 whole entry): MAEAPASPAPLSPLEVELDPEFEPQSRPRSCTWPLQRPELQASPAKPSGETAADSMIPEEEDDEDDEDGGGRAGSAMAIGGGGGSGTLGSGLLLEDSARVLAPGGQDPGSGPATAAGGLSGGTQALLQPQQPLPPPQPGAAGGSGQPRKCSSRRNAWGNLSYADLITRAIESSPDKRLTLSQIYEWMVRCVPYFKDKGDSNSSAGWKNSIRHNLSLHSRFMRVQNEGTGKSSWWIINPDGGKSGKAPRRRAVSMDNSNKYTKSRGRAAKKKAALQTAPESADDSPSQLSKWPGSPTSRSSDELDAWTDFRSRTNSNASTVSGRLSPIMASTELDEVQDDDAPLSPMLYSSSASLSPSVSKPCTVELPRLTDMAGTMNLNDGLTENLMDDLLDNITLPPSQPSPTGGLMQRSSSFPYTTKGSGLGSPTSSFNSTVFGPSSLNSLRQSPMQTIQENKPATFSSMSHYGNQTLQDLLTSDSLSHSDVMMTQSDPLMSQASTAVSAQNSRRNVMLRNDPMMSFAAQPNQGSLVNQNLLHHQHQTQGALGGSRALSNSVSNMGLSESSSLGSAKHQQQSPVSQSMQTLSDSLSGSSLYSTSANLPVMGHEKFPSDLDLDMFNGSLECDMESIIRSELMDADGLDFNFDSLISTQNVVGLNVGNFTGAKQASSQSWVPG

[2] = target: Forkhead box protein O3 (Homo sapiens) (UniProt O43524); test: Transactivation of FOXO3a in human OVACAR-3 cells assessed as nuclear accumulation of FOXO3a at 2 uM incubated for 3 hrs by western blot analysis; type: cell-based; settings: OVCAR-3, filed as activator
[3] = target: Forkhead box protein O3 (Homo sapiens) (UniProt O43524); test: Activation of FOXO3a in human OVACAR-3 cells assessed as nuclear accumulation of FOXO3a at 2 uM incubated for 3 hrs by DAPI staining based immunofluorescence assay; type: cell-based; settings: OVCAR-3, filed as activator
[4] = test system: OVCAR-3; test: Cytotoxicity against human OVCAR-3 cells assessed as inhibition of cell growth incubated for 72 hrs by CellTiter-Blue cell viability assay; type: functional, cell-based; settings: OVCAR-3, 72 h
[5] = target: Forkhead box protein O3 (Homo sapiens) (UniProt O43524); test: Activation of FOXO3a in human OVACAR-3 cells assessed as decrease in cytosolic localization of FOXO3a at 1 uM incubated for 3 hrs by DAPI staining based immunofluorescence assay; type: cell-based; settings: OVCAR-3, filed as activator
[6] = target: Forkhead box protein O3 (Homo sapiens) (UniProt O43524); test: Transactivation of FOXO3a in human OVACAR-3 cells assessed as decrease in cytosolic concentration of FOXO3a at 1 uM for 3 hrs by western blot analysis; type: cell-based; settings: OVCAR-3, filed as activator
[7] = target: Forkhead box protein O3 (Homo sapiens) (UniProt O43524); test: Activation of FOXO3a in human OVACAR-3 cells assessed as increase in nuclear accumulation of FOXO3a at 1 uM incubated for 3 hrs by DAPI staining based immunofluorescence assay; type: cell-based; settings: OVCAR-3, filed as activator
[8] = target: Forkhead box protein O3 (Homo sapiens) (UniProt O43524); test: Transactivation of FOXO3a in human OVACAR-3 cells assessed as increase in nuclear accumulation of FOXO3a at 1 uM incubated for 24 hrs by western blot analysis; type: cell-based; settings: OVCAR-3, filed as activator

- Activity [1]: Active
- Activity [2]: Active
- Activity [3]: Active
SMILES: O=c1cc(N2CCOCC2)oc2c(-c3ccccc3)cccc12 [LY-294002]
- pIC50 [4]: 5.04

SMILES: COc1nsc2c1C(=O)c1c(O)ccc(C(=O)O)c1C2=O
- pIC50 [4]: 5.52

SMILES: COc1nsc2c1C(=O)c1ccccc1C2=O
- pIC50 [4]: 6.22

- Activity [5]: Active
- Activity [6]: Active
- Activity [7]: Active
- Activity [8]: Active
SMILES: COc1nsc2c1C(=O)c1c(O)cccc1C2=O
- pIC50 [4]: 6.52
